Reference: patent publication US20240408093A1, “HETEROBIFUNCTIONAL COMPOUNDS AND THEIR USE IN TREATING DISEASE” (HALDA THERAPEUTICS OPCO, INC., priority 2022, published 2024)
Like-named read-outs stand apart in the source and are kept apart here.

How the values were obtained:
[1] = target: T1, BTK (Homo sapiens, UniProt Q06187); experiment: Release of effector protein ligand from heterobifunctional compounds, BTK; assay type: biochemical; conditions: detected A1-7
T1 construct: BTK (amino acids 387-659)
T1 sequence (Q06187 387-659): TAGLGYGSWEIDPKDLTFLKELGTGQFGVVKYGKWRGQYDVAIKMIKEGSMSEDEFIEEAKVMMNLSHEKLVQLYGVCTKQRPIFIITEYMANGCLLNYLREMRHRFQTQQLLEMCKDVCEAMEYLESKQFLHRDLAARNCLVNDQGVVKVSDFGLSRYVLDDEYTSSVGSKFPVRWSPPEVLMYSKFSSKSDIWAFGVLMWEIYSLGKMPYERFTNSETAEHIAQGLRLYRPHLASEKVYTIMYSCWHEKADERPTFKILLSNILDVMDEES
Protocol: Exemplary heterobifunctional compounds were evaluated for the ability to release an effector protein ligand in the presence of KRAS G12C, BTK, or EGFR T790M L858R target proteins.
Samples for mass spectrometry for KRAS G12C, BTK, and EGFR T790M L858R were prepared as described above for the intact mass spectrometry target engagement experiment, respectively, except rather than flash-freezing, 20 μL of sample was quenched with 50 μL of 100% acetonitrile. As well, a buffer-only control was used to detect latent release of effector protein ligand analyte. Internal standard (IS) solution consisted of 200 ng/mL propranolol and 50 ng/mL diclofenac in methanol:water 1:1 (v/v). A 4-point calibration curve (calibration standard (CS)) consisting of each analyte was made at final concentrations of 3 nM, 30 nM, 300 nM, and 3000 nM. Unknown samples were diluted such that the unknown analyte concentration was in the linear range of the calibration curve.
Samples for all proteins were prepared and analyzed from the following:
Samples were further analyzed with AB Sciex Triple Quad 5500 system coupled with Shimadzu Prominence HPLC.

[2] = tested on: HEK293 cells (ATCC CRL-1573); experiment: Cellular growth inhibition assay, HEK293 cells (Example 16); assay type: cell-based; conditions: Homo sapiens, 72 hours, CellTiter-Glo 2.0
Protocol: (§1) Exemplary compounds were tested for ability to inhibit the proliferation of HEK293 cells (ATCC CRL-1573) and HeLa cells (ATCC CCL-2).
(§2) HEK293 and HeLa cells were cultured in DMEM (Gibco 11995), supplemented with 10% Heat-inactivated FBS (Gibco A38400-01) and 1% Penicillin/Streptomycin (Gibco 15140-122) at 37° C. with 5% CO2 in a humidified tissue culture incubator. Cells were seeded at 500 cells/well in 384-well, Poly-D-lysine-treated blackplates (Perkin Elmer 6007710) in 25 μL media lacking selection for 18-24 hours. Plates were spun at 300 g for 30 seconds and stored in the incubator overnight. After 24 hours, a 25 μL aliquot of compound-containing medium was added in each well, at a final top concentration of 10 μM test compound, with 3-fold dilutions, using DMSO alone as a negative control. Plates were then spun at 300×g for 3 minutes again and cultured at 37° C. with 5% CO2. After 72 hours, cell viability was quantified with CellTiter-Glo 2.0 (Promega). After equilibrating cell plates at room temperature for 30 minutes, 25 μL CellTiter-Glo 2.0 reagent was dispensed into each well. Plates were mixed on a shaker for 2 minutes at 500 rpm, followed by a 10-minute incubation at room temperature. Luminescence readings were measured with an EnVision Plate Reader (Perkin Elmer). Data was normalized to DMSO treated cell wells. A four-parameter non-linear regression curve fit was applied to dose-response data in Prism to determine the half maximal growth inhibitory concentration (GI50) of each compound.

[3] = tested on: HeLa cells (ATCC CCL-2); experiment: Cellular growth inhibition assay, HeLa cells (Example 16); assay type: cell-based; conditions: Homo sapiens, 72 hours, CellTiter-Glo 2.0
Protocol: as §1, §2

[4] = target: T2, EGFR WT (amino acids 669-1011) (Homo sapiens, UniProt P00533); experiment: KdELECT binding assay, EGFR WT
T2 construct: purchased Eurofins Discovery (KdELECT); host or cells: bacteria (E. coli BL21-derived, T7 phage)
T2 sequence (P00533 669-1011): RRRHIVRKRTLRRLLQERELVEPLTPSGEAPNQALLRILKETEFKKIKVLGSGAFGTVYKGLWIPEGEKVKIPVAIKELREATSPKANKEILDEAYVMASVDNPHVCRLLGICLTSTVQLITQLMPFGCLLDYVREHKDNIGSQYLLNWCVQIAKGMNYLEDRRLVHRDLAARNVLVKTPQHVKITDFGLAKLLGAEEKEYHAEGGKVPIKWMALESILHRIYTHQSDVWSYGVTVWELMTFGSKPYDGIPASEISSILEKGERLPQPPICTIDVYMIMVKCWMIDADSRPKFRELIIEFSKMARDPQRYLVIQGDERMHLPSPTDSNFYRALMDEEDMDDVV
Protocol: (§3) Exemplary compounds were tested for ability to bind to EGFR WT (amino acids 669-1011, Accession Number NP_005219.2) or EGFR T790M, L858R (amino acids 669-1011 Accession Number NP_005219.2) expressed from bacteria or mammalian cells, respectively. Compounds were tested using the KdELECT assay at Eurofins Discovery.
(§4) Kinase-tagged T7 phage strains were prepared in an E. coli host derived from the BL21 strain. E. coli were grown to log-phase and infected with T7 phage and incubated with shaking at 32° C. until lysis. The lysates were centrifuged and filtered to remove cell debris. The remaining kinases were produced in HEK-293 cells and subsequently tagged with DNA for qPCR detection. Streptavidin-coated magnetic beads were treated with biotinylated small molecule ligands for 30 minutes at room temperature to generate affinity resins for kinase assays. The liganded beads were blocked with excess biotin and washed with blocking buffer (SeaBlock (Pierce), 1% BSA, 0.05% Tween 20, 1 mM DTT) to remove unbound ligand and to reduce non-specific binding. Binding reactions were assembled by combining kinases, liganded affinity beads, and test compounds in 1x binding buffer (20% SeaBlock, 0.17× PBS, 0.05% Tween 20, 6 mM DTT). Test compounds were prepared as 111× stocks in 100% DMSO. Kd values were determined using an 11-point 3-fold compound dilution series with three DMSO control points. All compounds for Kd measurements are distributed by acoustic transfer (non-contact dispensing) in 100% DMSO. The compounds were then diluted directly into the assays such that the final concentration of DMSO was 0.9%. All reactions performed in polypropylene 384-well plate. Each was a final volume of 0.02 mL. The assay plates were incubated at room temperature with shaking for 1 hour and the affinity beads were washed with wash buffer (1× PBS, 0.05% Tween 20). The beads were then re-suspended in elution buffer (1× PBS, 0.05% Tween 20, 0.5 μM nonbiotinylated affinity ligand) and incubated at room temperature with shaking for 30 minutes. The kinase concentration in the eluates was measured by qPCR.

[5] = target: T3, EGFR T790M, L858R (amino acids 669-1011) (Homo sapiens, UniProt P00533, L858R/T790M); experiment: KdELECT binding assay, EGFR T790M, L858R
T3 construct: purchased Eurofins Discovery (KdELECT); host or cells: mammalian cells (HEK-293)
T3 sequence (P00533 669-1011 T790M/L858R): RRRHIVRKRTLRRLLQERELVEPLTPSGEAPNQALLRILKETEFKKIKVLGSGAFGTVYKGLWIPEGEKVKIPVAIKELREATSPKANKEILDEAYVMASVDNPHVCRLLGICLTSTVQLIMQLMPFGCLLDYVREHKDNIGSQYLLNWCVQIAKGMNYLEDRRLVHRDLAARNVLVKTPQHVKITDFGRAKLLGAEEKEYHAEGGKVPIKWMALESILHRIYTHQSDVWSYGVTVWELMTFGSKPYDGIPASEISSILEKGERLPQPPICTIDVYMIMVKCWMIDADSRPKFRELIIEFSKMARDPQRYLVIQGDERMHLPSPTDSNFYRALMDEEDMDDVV
Protocol: as §3, §4

[6] = tested on: CCNK; experiment: Payload release assay (DC50 readout), CCNK degradation in the presence of recombinant target protein; assay type: cell-based; conditions: II-series and V-4 (CCNK readout inferred)
Protocol: Exemplary compounds were tested for ability to cause degradation of CCNK or GSPT1 in the presence of recombinant target protein.
HEK293 LgBiT/GSPT1 HiBiT CRISPR Knock-in cells (Promega) were cultured in DMEM (Gibco 11995), supplemented with 10% Heat-inactivated FBS (Gibco A38400-01) and 1% Penicillin/Streptomycin (Gibco 15140-122) and 200 Vg/ml Hygromycin B (Gibco 10-687-010) at 37° C. with 5% CO2 in a humidified tissue culture incubator. HEK293 LgBiT/CCNK HiBiT cells (in-house, described above) were cultured in DMEM (Gibco 11995), supplemented with 10% Heat-inactivated FBS (Gibco A38400-01) and 1% Penicillin/Streptomycin (Gibco 15140-122) 200 Vg/ml Hygromycin B (Gibco 10-687-010), and 1 Vg/ml Puromycin Dihydrochloride (Thermo A1113803) at 37° C. with 5% CO2 in a humidified tissue culture incubator. Cells were seeded (1000 cells/well for HEK293 LgBiT/GSPT1 HiBiT cells or 3000 cells/well for HEK293 LgBiT/CCNK HiBiT cells) 384-well, tissue culture-treated white plates (Perkin Elmer 6007680) in 10 μL media lacking selection for 18-24 hours. Plates were spun at 300 g for 30 seconds and stored in the incubator overnight. After 24 hours, a 5 μL aliquot of recombinant target protein (final concentration of either 5 μM KRAS amino acids 1-169, C51S, C80L, C118S, G12C or 3 μM EGFR amino acids 696-1022 or 3 μM EGFR amino acids 696-1022, T790M, L858R) was added to wells, followed immediately by a 5 μL aliquot of 4× compound-containing medium supplemented with Endurazine Substrate (Promega N2570) was added in each well, at a final top concentration of 10 μM test compound and 0.5× Endurazine, with 4-fold dilutions, using DMSO alone as a negative control. Plates were then spun at 300×g for 3 minutes again and cultured at 37° C. with 5% CO2. After 6 hours the plate was read on Envision MultiMode Plate Reader 2105 (Perkin Elmer) to measure luminescence signal. Data was normalized to DMSO treated cell wells. A four-parameter non-linear regression curve fit was applied to dose-response data in Prism to determine the half maximal growth inhibitory concentration (GI50) of each compound.

## C=C(COc1ccc2nc3c(c(CC)c2c1)Cn1c-3cc2c(c1=O)COC(=O)[C@]2(O)CC)C(=O)N1CCC[C@@H](n2nc(-c3ccc(Oc4ccccc4)cc3)c3c(N)ncnc32)C1 [Compound A1-6]
[1]; Matrix Buffer + Protein (BTK), Time 0 h
  Concentration of Effector Protein Ligand: 790 nM
[1]; Matrix Buffer + Protein (BTK), Time 1 h
  Concentration of Effector Protein Ligand: 797 nM
[1]; Matrix Buffer + Protein (BTK), Time 4 h
  Concentration of Effector Protein Ligand: 641 nM
[1]; Matrix Buffer + Protein (BTK), Time 22 h
  Concentration of Effector Protein Ligand: 770 nM
[1]; Matrix Buffer, Time 0 h
  Concentration of Effector Protein Ligand: 104 nM
[1]; Matrix Buffer, Time 1 h
  Concentration of Effector Protein Ligand: 92.6 nM
[1]; Matrix Buffer, Time 4 h
  Concentration of Effector Protein Ligand: 66.4 nM
[1]; Matrix Buffer, Time 22 h
  Concentration of Effector Protein Ligand: 86.4 nM

## C=C(Cn1c(CNc2nc(N3CCN(C)CC3)nc3c(Br)cnn23)nc2c(F)c(F)ccc21)C(=O)N[C@@H]1CN(c2nc(Nc3cn(C)nc3OC)c3ncn(C)c3n2)C[C@H]1F [II-182]
[2]
  GI50: 1.5 to 10 µM
[3]
  GI50: 1.5 to 10 µM
[4]
  Kd: > 2.5 µM
[5]
  Kd: > 2.5 µM
[6]; 0 μM recombinant EGFR T790M L858R, read-out: DC50 at 0 μM EGFR T790M L858R
  DC50: 5 to 10 µM
[6]; 0 μM recombinant EGFR WT, read-out: DC50 at 0 μM EGFR WT
  DC50: 5 to 10 µM
